Among the test systems are HCT-116 colon; HOP-62 NSCLC; ACHN renal; RXF 393 renal; 786-0 renal; SF-539 CNS; IGROV1 ovarian; M14 melanoma; HT29 colon; SW-620 colon.
Test in all cases: NCI anticancer screen, dose series, 48 h

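Protocol summary: plate cells (96-well), add compound at 5 concentrations, incubate 48 h, interpolate endpoints linearly. Abbreviation: GI50, concentration required for 50% inhibition of growth. Definition used: TGI = concentration required for complete inhibition of growth.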

The results in this text go back to PubChem BioAssay (NCI).

Turning to `CC(=O)OC1C2(CC3N4C(=O)C5(CO)SSC4(CC31O)C(=O)N5C)OC(C)C(C)(C)C2=O` (stereo not drawn), the GI50 in the assay with HCT-116 colon is 0.0696 µM; in the assay with HOP-62 NSCLC it was 0.575 µM; in the assay on ACHN renal, below 0.01 µM; with RXF 393 renal, 0.0473 µM; in the assay with 786-0 renal, 0.234 µM; in the assay with SF-539 CNS, 0.139 µM. For the same molecule, the GI50 is 0.117 µM in the assay on IGROV1 ovarian, 0.253 µM in the assay with M14 melanoma, below 0.01 µM in the assay on HT29 colon and below 0.01 µM in the assay with SW-620 colon. Besides, the TGI in the assay with HCT-116 colon stood at 0.212 µM; in the assay with HOP-62 NSCLC, 1.08 µM; with ACHN renal, 0.0225 µM; in the assay on RXF 393 renal, 0.151 µM; in the assay on 786-0 renal it was 0.528 µM; with SF-539 CNS, 0.215 µM. Moreover, the TGI was found to be 0.577 µM with IGROV1 ovarian, 0.722 µM in the assay on M14 melanoma and 0.0136 µM in the assay on SW-620 colon.

On to `CCOC(=O)N1C2C=C(C)C(C3C(C)C(=O)N31)N(C(=O)c1ccccc1)O2` (stereo not drawn), for which the TGI in the assay on HCT-116 colon, in the assay on HOP-62 NSCLC, in the assay on ACHN renal, in the assay on RXF 393 renal, with 786-0 renal and with SF-539 CNS was above 100 µM in each case. Moreover, the TGI with IGROV1 ovarian, with M14 melanoma, with HT29 colon and in the assay with SW-620 colon was above 100 µM each time.

`O=C1c2ccccc2C(=O)C1C(c1ccc([N+](=O)[O-])cc1)C1C(=O)c2ccccc2C1=O`: the TGI in the assay on HCT-116 colon was 49.3 µM; in the assay with HOP-62 NSCLC, above 100 µM; in the assay on ACHN renal, above 100 µM; with RXF 393 renal, 32.9 µM; in the assay with 786-0 renal it was above 100 µM; in the assay with SF-539 CNS, above 100 µM. Moreover, the TGI was above 100 µM in the assay on M14 melanoma, above 100 µM in the assay on HT29 colon and 32.3 µM with SW-620 colon.

Consider `C=C(C)CCC(C)N1CCC(N2CCC(C(=O)NCCc3ccccc3)CC2)CC1` (stereo not drawn), for which the GI50 in the assay with HCT-116 colon is 16.8 µM; with HOP-62 NSCLC, 68.9 µM; with ACHN renal, 17.2 µM; in the assay on RXF 393 renal, 14.8 µM; in the assay with 786-0 renal it was above 100 µM; in the assay on SF-539 CNS it was 10.5 µM. Moreover, the GI50 with IGROV1 ovarian was above 100 µM; with M14 melanoma it was 15.4 µM; in the assay with HT29 colon, 22.1 µM; in the assay with SW-620 colon it was 24.7 µM. For the same molecule, the TGI in the assay with HCT-116 colon is above 100 µM; in the assay with HOP-62 NSCLC, above 100 µM; in the assay with ACHN renal it was 53.8 µM; with RXF 393 renal, 43 µM; in the assay with 786-0 renal, above 100 µM; in the assay on SF-539 CNS it was 23.8 µM. Besides, the TGI in the assay on IGROV1 ovarian is above 100 µM; with M14 melanoma, 31.1 µM; with HT29 colon, above 100 µM; in the assay on SW-620 colon, above 100 µM.

On to `COc1cc(Oc2c(O)c(C)c(OC)c(C(C)=O)c2O)c(C(C)=O)c(O)c1C`, for which the TGI with HCT-116 colon is above 100 µM; in the assay with HOP-62 NSCLC, 83.1 µM; in the assay with ACHN renal, above 100 µM; in the assay on RXF 393 renal it was above 100 µM; in the assay on 786-0 renal, above 100 µM; in the assay with SF-539 CNS, above 100 µM. Also, the TGI in the assay on IGROV1 ovarian, with M14 melanoma, with HT29 colon and in the assay on SW-620 colon was above 100 µM throughout.

With `CCCCC[C@H]1C/C=C2/C(=O)C(Cl)=C[C@@H]2C/C=C\CCCC(=O)O[C@@H](CCCCC)C/C=C2/C(=O)C(Cl)=C[C@@H]2C/C=C\CCCC(=O)O1`, the GI50 in the assay on HCT-116 colon was 0.186 µM; in the assay with HOP-62 NSCLC it was 0.416 µM; in the assay on ACHN renal it was 0.623 µM; in the assay on RXF 393 renal, 0.297 µM; in the assay with 786-0 renal, 0.28 µM; in the assay with SF-539 CNS, 0.518 µM. Also, the GI50 with IGROV1 ovarian was 0.342 µM; in the assay on M14 melanoma it was 0.39 µM; in the assay on HT29 colon, 0.46 µM; in the assay on SW-620 colon, 0.512 µM. In addition, the TGI was found to be 0.523 µM in the assay with HCT-116 colon; 1.01 µM with HOP-62 NSCLC; 2.15 µM in the assay on ACHN renal; 0.576 µM in the assay on RXF 393 renal; 0.622 µM in the assay on 786-0 renal; 1.97 µM in the assay on SF-539 CNS. For the same molecule, the TGI in the assay with IGROV1 ovarian turned out to be 0.958 µM; in the assay on M14 melanoma, 1.07 µM; in the assay on HT29 colon it was 1.44 µM; in the assay on SW-620 colon it was 1.77 µM.

Turning to `Fc1ccc(Nc2nccc(-c3c(-c4ccc(C(F)(F)F)cc4)nn4ncccc34)n2)cc1F`, the GI50 with HCT-116 colon, with HOP-62 NSCLC, in the assay on ACHN renal, with RXF 393 renal, in the assay on 786-0 renal and in the assay on SF-539 CNS was above 25 µM each time. For the same molecule, the GI50 in the assay with IGROV1 ovarian, in the assay on M14 melanoma, in the assay on HT29 colon and in the assay on SW-620 colon was above 25 µM in each case. The TGI in the assay on HCT-116 colon, in the assay on HOP-62 NSCLC, in the assay on ACHN renal, in the assay with RXF 393 renal, in the assay with 786-0 renal and in the assay on SF-539 CNS was above 25 µM in each case. Moreover, the TGI with IGROV1 ovarian, in the assay on M14 melanoma, in the assay with HT29 colon and in the assay on SW-620 colon was above 25 µM each time.

Regarding `COc1ccc(COCC(Cn2ccnc2)OCc2ccc(C(=O)O)cc2)cc1` (stereo not drawn), the TGI in the assay with HCT-116 colon, in the assay on HOP-62 NSCLC, in the assay on ACHN renal, with RXF 393 renal, in the assay on 786-0 renal and in the assay with SF-539 CNS was above 100 µM each time. Besides, the TGI with IGROV1 ovarian, in the assay on M14 melanoma, in the assay with HT29 colon and in the assay on SW-620 colon was above 100 µM throughout.

For `COc1ccc2c(c1)nc(N)c1c3cccnc3cn21`, the GI50 in the assay on HCT-116 colon is 0.0471 µM; in the assay on HOP-62 NSCLC, 0.273 µM; in the assay on ACHN renal, 0.0938 µM; with RXF 393 renal, 0.0224 µM; in the assay with 786-0 renal, 0.115 µM; in the assay with SF-539 CNS, 0.0432 µM. Also, the GI50 in the assay with IGROV1 ovarian was 0.106 µM; with M14 melanoma, 0.039 µM; in the assay on HT29 colon it was 0.0351 µM; in the assay with SW-620 colon, 0.0373 µM. The TGI was above 36.7 µM in the assay on HCT-116 colon; above 78.9 µM with HOP-62 NSCLC; 15 µM in the assay on ACHN renal; 0.0777 µM in the assay with RXF 393 renal; 16.7 µM in the assay with 786-0 renal; 1.09 µM with SF-539 CNS. In addition, the TGI with IGROV1 ovarian is 37.1 µM; in the assay with M14 melanoma, 27.9 µM; in the assay on HT29 colon it was 1.88 µM; in the assay on SW-620 colon, 14.5 µM.
